In assay [1] the target is saFabI (Staphylococcus aureus (strain MRSA252), UniProt Q6GI75). Kind of assay: saFabI inhibition kinetics. In kind it is biochemical.
Assay [2] has as its target ecFabI (Escherichia coli (strain K12), UniProt P0AEK4). Description: ecFabI inhibition kinetics. In kind it is biochemical. Particulars: Ki^app (nM), [S]/KS = 0.19.
Assay [3] has as its target M. tuberculosis enoyl-ACP reductase InhA (Mycobacterium tuberculosis (strain ATCC 25618 / H37Rv), UniProt P9WGR1). Kind of assay: InhA inhibition kinetics. In kind it is biochemical.
For assay [4], the system named is S. aureus RN4220. Description: MIC microbroth dilution, S. aureus RN4220. It is filed as cell-based, Staphylococcus aureus. Conditions: for MIC: Staphylococcus aureus.
Assay [5] relates to E. coli MG1655 ΔacrAB. Description: microbe, parasite or virus in culture. It is filed as cell-based, Escherichia coli.
Assay [6] relates to F. tularensis LVS. Kind of assay: microbe, parasite or virus in culture. It is filed as cell-based. Particulars: Francisella tularensis, read-out: Francisella tularensis MIC (μg/mL) LVS, 2-pyridones table.
Assay [7] deals with M. tuberculosis H37Rv. Description: MIC microbroth dilution, M. tuberculosis H37Rv. In kind it is cell-based. Conditions: Mycobacterium tuberculosis, H37RV, read-out: Mycobacterium tuberculosis MIC (μg/mL) H37Rv. A general note: Dilution methods test growth across graded concentrations, often in twofold steps.
The subject of assay [8] is Bt38. Description: microbe, parasite or virus in culture. Conditions: Burkholderia pseudomallei, read-out: Burkholderia pseudomallei MIC (μg/mL) Bt38. It is filed as cell-based.
The target in assay [9] is Francisella tularensis FabI (Francisella tularensis subsp. tularensis (strain SCHU S4 / Schu 4), UniProt Q5NGQ3). Kind of assay: biochemical.
Assay [10] concerns the target bpFabI (Burkholderia pseudomallei, UniProt A0A0H3HP34). Kind of assay: biochemical.
Assay [11] has as its target YpFabV (Yersinia pestis, UniProt Q8Z9U1). Kind of assay: biochemical.
In assay [12] the test system is MRSA strain BAA1762. Description: Neutropenic mouse thigh infection model. It is filed as in vivo, Swiss Webster mice. Conditions: MRSA BAA1762, neutropenic mouse thigh, FIG. 8.
Where [13] appears, read: Ki^app (nM), saFabI, [S]/KS = 2.
Where [14] appears, read: Staphylococcus aureus Ki (in brackets under IC50), 2-pyridones table.
Where [15] appears, read: RN4220, S. aureus RN4220, read-out: MIC.
The mark [16] stands for this setting: RN4220, 2-pyridones table, read-out: Staphylococcus aureus MIC (μg/mL) RN4220.

≈ marks a conversion by molar mass, not a printed value. Like-named read-outs stand apart in the source and are kept apart here. Bounds are passed on as bounds.

With `CCCCCCc1ccn(Cc2cccc(N)c2C)c(=O)c1` [PT173], the IC50 (usually the concentration that inhibits the measured activity by half) is 68 ± 14 nM in assay [1], over 3200 nM in assay [3], 83 ± 15 nM in [9] and 460 ± 10 nM in assay [10]. The Ki was 2 ± 0.4 nM in assay [1] (Ki (nM), saFabI); 1.97 nM in assay [1] (Ki, saFabI); 7.3 ± 1.5 nM in assay [1] (setting [13]); 2 ± 0.4 nM in assay [1] (setting [14]); 246 ± 10.1 nM in assay [2]. Moreover, the MIC in assay [4] (setting [15]) was 6.7 µM; in [5] (Escherichia coli, MG1655), over 425 µM; in [6] it was 3.57 µg/mL (≈ 12 µM); in [7] (2-pyridones table) it was 50 µg/mL (≈ 168 µM); in assay [8] it was 36.3 µg/mL (≈ 122 µM). Moreover, the “Escherichia coli MIC (μg/mL) MG1655 ΔacrAB” value in assay [5] (2-pyridones table) was over 425 µg/mL.

Take `CCCCCCc1ccn(Cc2cccc([N+](=O)[O-])c2C)c(=O)c1` [PT174]: the half-inhibitory concentration (IC50) in assay [1] came out at 248 ± 20 nM; in assay [9] it was 85 ± 11 nM. The MIC in [4] (setting [16]) was found to be 50 µg/mL; in assay [6] it was 2.12 µg/mL (≈ 6.46 µM); in assay [8] it was 250 µg/mL (≈ 761 µM).

Consider `CCCCCCc1ccn(Cc2cccnc2F)c(=O)c1` [PT175], for which the IC50 in assay [1] is over 1000 nM; in [3], over 4000 nM; in [10], over 1000 nM. Moreover, the MIC in assay [4] (setting [16]) was found to be 50 µg/mL; in assay [6], 14 µg/mL (≈ 48.4 µM); in assay [7] (2-pyridones table) it was 50 µg/mL (≈ 173 µM); in assay [8], 78.3 µg/mL (≈ 272 µM).

The compound `CCCCCCc1ccn(Cc2ccccc2)c(=O)c1` [PT179] showed an IC50 in assay [1] of 192 ± 30 nM. Besides, the Ki worked out at 19 ± 2.7 nM in assay [1] (Ki (nM), saFabI); 70.4 ± 9.8 nM in assay [1] (setting [13]); 19 ± 2.7 nM in assay [1] (setting [14]). Also, the results for the MIC in assay [4] (setting [16]) and in assay [4] (setting [15]) were 32 µg/mL and 119 µM, respectively.

`CCCCCCc1cc(=O)c(Oc2cccnc2F)cn1C` [PT190] registered an IC50 in [3] of 641 ± 55 nM. For the same compound, the MIC in assay [7] (4-pyridones table) came to 25 µg/mL (≈ 82.1 µM).

In the case of `CCCCCCc1ccc(Oc2ccccc2)c(=O)[nH]1` [PT191], the IC50 in [1] is over 2000 nM; in assay [9], over 10000 nM; in [10], over 3000 nM. The Ki was 196 ± 22.2 nM in [1] (Ki (nM), saFabI); 729 ± 82.4 nM in assay [1] (setting [13]); 196 ± 22.2 nM in assay [1] (setting [14]). In addition, in assay [3] ([I] = 2 μM, [E] = 100 nM), the “Mycobacterium tuberculosis enzyme, inhibition” value is 10%.

As to `CCCCCCc1ccc(Oc2ccccc2C)c(=O)[nH]1` [PT192], the “Staphylococcus aureus MIC (μg/mL) RN4220” value in assay [4] (2-pyridones table) is on record as “No”. For the same compound, the MIC in assay [6] came to 9.2 µg/mL (≈ 32.2 µM); in assay [8], 8.35 µg/mL (≈ 29.3 µM).

For the compound `CCCCCCc1ccn(Cc2ccccc2C#N)c(=O)c1` [PT420], the results for the half-inhibitory concentration (IC50) in [1] and in assay [9] were 746 ± 165 nM and 727 ± 84 nM, respectively. Further, the Ki is 29.6 ± 9.5 nM in assay [1] (Ki (nM), saFabI); 110 ± 1.7 nM in assay [1] (setting [13]); 29.6 ± 0.5 nM in assay [1] (setting [14]). In addition, the MIC is 32 µg/mL in assay [4] (setting [16]), 109 µM in [4] (setting [15]), 10.2 µg/mL (≈ 34.7 µM) in assay [6] and 44.4 µg/mL (≈ 151 µM) in [8].

Consider `CCCCCCc1ccn(Cc2cccc(F)c2)c(=O)c1` [PT421], for which the IC50 in assay [1] was found to be 297 ± 64 nM. The MIC in assay [4] (setting [16]) came to 2 µg/mL.

`CCCCCCc1ccn(Cc2ccc(F)cc2)c(=O)c1` [PT422]: the concentration for half-maximal inhibition (IC50) in [1] was found to be 222 ± 22 nM. The MIC in assay [4] (setting [16]) was 1 µg/mL.

Consider `CCCCCCc1ccn(Cc2ccccc2F)c(=O)c1` [PT423], for which the IC50 in [1] stood at 165 ± 22 nM. Besides, the MIC in assay [4] (setting [16]) worked out at 16 µg/mL.

As to `CCCCCCc1ccn(Cc2ccc([N+](=O)[O-])cc2)c(=O)c1` [PT424], the IC50 in assay [1] is 1500 ± 200 nM. The compound also registered a Ki in assay [11] of 11000 nM.

Regarding `CCCCCCc1ccn(Cc2ccc(N)cc2)c(=O)c1` [PT425], the IC50 in [1] was determined as 380 ± 20 nM. In addition, the MIC in assay [4] (setting [16]) is about 32 µg/mL.

Regarding `CCCCCCc1ccn(Cc2ccc(Cl)cc2)c(=O)c1` [PT426], the IC50 in [1] was 185 ± 18 nM. The MIC in assay [4] (setting [16]) was about 32 µg/mL.

In [1], `CCCCCCc1ccn(Cc2ccc(C(C)=O)cc2)c(=O)c1` [PT427] registered an IC50 of 394 ± 40 nM. The MIC in assay [4] (setting [16]) was over 128 µg/mL.

In the case of `Cc1onc(-c2ccccc2)c1C(=O)N[C@@H]1C(=O)N2[C@@H]1SC(C)(C)[C@@H]2C(=O)O` [oxacillin], the “in vivo antibacterial efficacy” value in [12] was “no in vivo antibacterial efficacy”.

The values are drawn from US10071965B2, “Pyridone FabI inhibitors and uses thereof” (priority 2015, dated 2018).
